Experimental data from paper PMC6928947, “Benzo[b]tellurophenes as a Potential Histone H3 Lysine 9 Demethylase (KDM4) Inhibitor” (International Journal of Molecular Sciences, 2019).

Target: T1, KDM4A (Homo sapiens, UniProt O75164)
T1 sequence (O75164 2-1064): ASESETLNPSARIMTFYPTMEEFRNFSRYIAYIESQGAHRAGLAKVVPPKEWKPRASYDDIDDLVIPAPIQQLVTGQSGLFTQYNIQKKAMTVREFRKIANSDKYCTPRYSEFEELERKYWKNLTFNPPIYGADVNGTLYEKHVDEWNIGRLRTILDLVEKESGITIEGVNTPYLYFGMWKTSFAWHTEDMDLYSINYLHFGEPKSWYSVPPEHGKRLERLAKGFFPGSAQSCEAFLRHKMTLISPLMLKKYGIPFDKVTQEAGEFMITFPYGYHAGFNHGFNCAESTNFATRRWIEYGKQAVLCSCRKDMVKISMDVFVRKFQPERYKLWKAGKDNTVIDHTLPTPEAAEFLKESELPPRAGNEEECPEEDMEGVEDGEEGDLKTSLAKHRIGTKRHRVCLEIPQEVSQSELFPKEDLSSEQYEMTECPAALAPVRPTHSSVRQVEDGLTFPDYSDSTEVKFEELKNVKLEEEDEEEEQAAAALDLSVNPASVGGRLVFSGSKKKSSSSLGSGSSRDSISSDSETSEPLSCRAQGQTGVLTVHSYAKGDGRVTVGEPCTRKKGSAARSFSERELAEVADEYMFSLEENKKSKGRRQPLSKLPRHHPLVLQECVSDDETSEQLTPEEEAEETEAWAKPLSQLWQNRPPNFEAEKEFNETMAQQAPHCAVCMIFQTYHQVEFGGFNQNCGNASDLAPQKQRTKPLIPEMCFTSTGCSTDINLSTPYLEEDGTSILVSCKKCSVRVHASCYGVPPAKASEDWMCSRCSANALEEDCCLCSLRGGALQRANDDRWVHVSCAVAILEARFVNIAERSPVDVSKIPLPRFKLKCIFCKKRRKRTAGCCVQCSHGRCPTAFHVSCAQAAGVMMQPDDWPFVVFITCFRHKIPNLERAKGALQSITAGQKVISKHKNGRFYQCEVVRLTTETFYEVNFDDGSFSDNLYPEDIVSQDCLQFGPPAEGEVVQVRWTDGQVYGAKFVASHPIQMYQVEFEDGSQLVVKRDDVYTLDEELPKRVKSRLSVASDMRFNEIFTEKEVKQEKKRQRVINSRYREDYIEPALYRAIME
Test: FDH-coupled demethylase assay, recombinant KDM4A with H3K9me3 peptide (Cayman kit […])
Assay type: biochemical

SMILES: CC(C)(C)OC(=O)NCc1cc2ccccc2[te]1 [1c, tert-Butyl benzo[b]tellurophen-2-ylmethylcarbamate]
- IC50: 30.2 ± 4.6 µM
